“Also recorded” adds a separate entry of the source.
How the values were obtained:
Format in all cases: cell-based
PKB [1] = experiment: Immunofluorescence microscopy with phospho-specific Ser473 PKB antibody in NIH 3T3 or Cos6 fibroblasts; details: for phosphorylation of PKB on S473 by compound alone: 10 min, starved Cos6 cells, without any serum
Procedure: We therefore tested the compound's effect on PKB S473 phosphorylation by immunofluorescence microscopy with a phospho-specific PKB antibody.
(§1) NIH 3T3 of Cos6 fibroblasts growing on PLL coated coverslips in DMEM containing 10% FCS were starved for 24 hours. Stimulation with c48/80 [10 μg/ml] was always carried out in the presence of 1% FCS for 10 min. Whereas cells growing in DMEM completely depleted of serum were used for experiments with cQ [15 μg/ml]. Where indicated, cells were pretreated with 100 μM LY294002 for 30 min or 500 nM RV001 for 15 min. After treatment cells were washed with PBS, fixed with 4% PFA and permeabilised with 0.25% Triton-X/PBS and washed extensively. After blocking in 1% BSA, cells were phalloidin stained and/or incubated with phospho-specific Ser473 PKB antibody (Cell Signalling) at 4° C. over night and a Fluorescein (FITC)—conjugated goat anti-mouse IgG (Jackson Immuno Research) at room temperature for 1 h. Nuclei were stained with Dapi. Coverslips were mounted on Mowiol containing slides and sealed before analysing on a Nikon Microscope.

NIH3T3 fibroblasts = experiment: MTT assay; details: 50 μM
Text: However its inhibitory effects on stimulated cells were not as strong. The methods used were as for Example 2.

PKB [2] = molecular target: T1, PKB (Mus musculus, UniProt P31750); experiment: Western blotting of the phospho-Akt content (FIG. 5); details: NIH3T3 cells, method as for FIG. 2
T1 construct: endogenous in cells; host or cells: NIH3T3
T1 sequence (P31750 whole entry): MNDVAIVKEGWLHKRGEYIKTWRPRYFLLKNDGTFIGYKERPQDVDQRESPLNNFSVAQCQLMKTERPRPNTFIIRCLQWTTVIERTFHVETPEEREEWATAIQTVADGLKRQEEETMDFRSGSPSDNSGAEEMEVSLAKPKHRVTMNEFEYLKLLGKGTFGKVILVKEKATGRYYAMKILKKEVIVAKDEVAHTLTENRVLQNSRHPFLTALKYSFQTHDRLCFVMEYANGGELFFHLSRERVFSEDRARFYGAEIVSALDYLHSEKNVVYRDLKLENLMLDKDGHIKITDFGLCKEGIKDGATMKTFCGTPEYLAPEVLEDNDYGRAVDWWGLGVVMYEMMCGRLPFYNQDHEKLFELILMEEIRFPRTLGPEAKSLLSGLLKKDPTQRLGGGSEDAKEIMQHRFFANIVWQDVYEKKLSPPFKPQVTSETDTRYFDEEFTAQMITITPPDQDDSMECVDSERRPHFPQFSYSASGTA
Procedure: (§2) In a typical method, NIH3T3 cells were grown in media (GibcoBRL) containing 10% NCS to near confluency in six well plates. The cells were starved using 0.5% serum for 2-3 days. The media was then removed and replaced with serum free media for 15 minutes. Subsequently, 1% NCS was added to reaction wells, and 0%, 1% and 10% NCS to control wells. After 20 minutes incubation, the compound was added, and the wells incubated for a further 15 minutes. Media was removed and sample buffer was added and the cells lysed, boiled, centrifuged.
(§3) Samples were subjected to gel electrophoresis by 10% SDS-PAGE and then Western blotted on to PVDF membrane (Biorad) according to standard protocols. Western blots were probed using primary antibodies against PKB purchased from New England Biolabs and secondary antibodies of goat anti-rabbit IgG coupled to horseradish peroxidase (Amersham). The membranes were then developed using a freshly prepared ECL solution according to standard protocols.
Western blotting of the phospho-Akt content was also monitored. The methodology used was the same as above.

PKB [3] = molecular target: T1, PKB; experiment: Western blot monitoring PKB modulation in NIH3T3 cells (FIG. 2); details: 1% NCS, various concentrations, 15 minutes
Procedure: PKB is a protein downstream effector of PI3K, and becomes phosphorylated on (residues required for its activity) in response to the activation of PI3K. Natal Calf Serum (NCS) is a stimulator of PI3K and thus subsequently results in PKB activation. Therefore the positive control used in experiments is 10% serum and a negative control used is provided with no serum at all.
as §2, §3

Cos6 fibroblasts = experiment: Phalloidin staining of F-actin / actin remodelling in starved Cos6 fibroblasts; details: for insulin-stimulated actin remodelling: 15 μg/ml cQ and 5 μg/ml insulin
Procedure: as §1

SMILES: Oc1ccc(CCCl)cc1Cc1cc(CCCl)ccc1O [Compound C, 3,3′-Methylenebis[1-(2-chloroethyl)-4-hydroxybenzene]]
- Akt/PKB phosphorylation in starved cells (PKB [1]; 1 μM, starved cells): still activatory on its own
- inhibitory effects on Akt/PKB phosphorylation in stimulated cells (PKB [1]; 1 μM, stimulated cells, compared with 50 μM): not as strong
- Akt/PKB phosphorylation in Insulin stimulated cells (PKB [1]; 50 μM, Insulin stimulated cells): inhibitory on Akt/PKB phosphorylation
- response with PTEN inhibition (increased PI(3,4,5)P3 levels) (PKB [1]; 50 μM, PTEN inhibition): inhibited the response
- S473 phosphorylation with PI3-kinase inhibition (PKB [1]; 50 μM, Wortmannin or LY294002): increase of phosphorylation at this site
- Akt/PKB phosphorylation on S473 in starved cells (PKB [1]; 50 μM, starved cells): activate Akt/PKB phosphorylation on S473
- cytotoxicity (MTT assay) (NIH3T3 fibroblasts): cytotoxic effects
- activation of PKB (phospho-Akt content, western blots, FIG. 5) (PKB [2]): can activate PKB

SMILES: COc1c(CO)cc(C)cc1CO [Compound F, 2,6-Bis(hydroxymethyl)-4-anisole]
- effect on PKB (phosphorylation of PKB, western blots, FIG. 2) (PKB [3]): activators
- activation of PKB (phospho-Akt content, western blots, FIG. 5) (PKB [2]): can activate PKB

SMILES: Oc1ccc(CCCl)cc1 [Compound Q]
- PKB activation with PTEN inhibitor RV001 (increased PI(3,4,5)P3 levels) (PKB [1]; 15 μg/ml cQ, 500 nM RV001 pretreatment, 0.2 μg/ml insulin, listed as cQ): indirectly inhibits PKB activation after cQ challenge; also recorded: inhibited PI(3,4,5)P3 mediated PKB activation
- compound-induced PKB phosphorylation after PI3-kinase inhibition (PKB [1]; 15 μg/ml cQ, 30 min preincubation with 100 μM LY294002, listed as cQ): strongly increased cQ induced PKB phosphorylation; also recorded: increased cQ induced PKB phosphorylation
- effect of pretreatment on activation of PKB by serum (PKB [1]; 15 μg/ml, 10% FCS, starved cells): completely abolished the activation of PKB by 10% FCS
- phosphorylation of PKB on S473 by compound alone (PKB [1]; 15 μg/ml): induces phosphorylation of PKB
- phosphorylation of PKB on S473 by compound alone (PKB [1]; 15 μg/ml, listed as cQ): sufficient to induce phosphorylation of PKB on S473 residue
- effect of serum on compound-induced PKB activation (PKB [1]; increasing concentrations of serum): increasing concentrations of serum inhibit cQ induced PKB activation
- insulin-stimulated actin remodelling (Cos6 fibroblasts; 10 min): inhibits insulin-stimulated actin remodelling
- insulin-stimulated actin remodelling (Cos6 fibroblasts; 10 min, listed as cQ): counteract insulin-stimulated actin remodelling; also recorded: interferes with insulin-stimulated stress fiber breakdown
- stress fibers in starved fibroblasts (Cos6 fibroblasts; 15 μg/ml, 10 min, starved Cos6): induces the loss of stress fibers in starved fibroblasts
- cytoskeleton reorganisation, dependence on PI3-kinase (Cos6 fibroblasts; 15 μg/ml, preincubation with 100 μM LY294002 for 30 min, listed as cQ): capable of reorganising the cytoskeleton independent of PI3-kinase
- F-actin organisation after treatment (Cos6 fibroblasts; 15 μg/ml, starved Cos6): produces a disorganised cytoplasmic F-actin and an actin ring juxtaposed to the plasma membrane
- activation of PKB (phospho-Akt content, western blots, FIG. 5) (PKB [2]): can activate PKB

Reference: US20090221702A1, “COMPOUNDS” (priority 2005, published 2009)
